Experimental data taken from patent US20080311126A1, “Antisense Oligonucleotides Directed to Ribonucleotide Reducatase R2 and Uses Thereof in Combination Therapies for the Treatment of Cancer” (Genesense Technologies, Inc, priority 2004, published 2008).
Oligonucleotides are written 5' to 3', each unit as a sugar letter and its base; * is a phosphorothioate linkage, no mark a phosphodiester; rarer units and linkages stand in square brackets, end groups in braces. Plain capitals give the bases only. d = 2'-deoxy (DNA)

What was measured:
Type in all cases: cell-based, human
[1] = tested on: Hela S3 cells; assay: Relative colony forming efficiency, lipofectin +/- oligonucleotide 4 hours; details: Hela S3 cervix carcinoma cells; averages of 2-8 determinations
Protocol: Colony forming efficiency was determined using standard protocols. Briefly, the cells were cultured for 24 hours at 37° C. in growth medium with 10% fetal bovine serum. The cells were washed in 5 ml phosphate buffered saline, pH 7.2, once prior to lipofectin +/−oligonucleotide treatment.
The test oligonucleotides were added to cell cultures in the presence of 2.5 μg of DOTMA/DOPE (Lipofectin; Life Technologies, Inc.) for four hours. The oligonucleotide was tested at 0.2 μM unless otherwise indicated. Controls were the cultures treated with lipofectin but without the oligonucleotide. After 4 hours the medium containing the oligonucleotide was removed and washed with 5 ml of growth medium. The cells were then cultured in growth medium containing 10% fetal bovine serum for seven to ten days. Surviving cells were visualized by methylene blue staining, and colonies were scored. In some experiments cell aliquots were removed from the culture and viability was determined using the trypan blue exclusion test. Results were analyzed as percent of surviving cells compared to control cells.
AS-II-336-20 was tested for the ability to inhibit the proliferation of human tumour cells (Hela). Hela S3 cells (American Type Culture Collection, Rockville, Md., ATCC), and a Hela cell line (Hela 1 mM) previously selected for resistance to the antitumour agent, hydroxyurea, were tested (see results in Table 11). Two experiments were undertaken with Hela S3 cells. […] The same experiment was repeated with the Hela 1 mM cell line and with varying concentrations of the antisense construct AS-II-336-20 (see results in Table 11) with similar results, […] was an effective concentration for inhibiting colony formation.
To test the antisense effects of many of these sequences as phosphorthioate deoxyribonucleotides, they were examined in relative colony forming experiments conducted as described in Example 16 with a series of human tumour cell lines. The results (shown as % inhibition of colony forming ability) obtained with cancer cells derived from the bladder, breast, lung, colon, pancreas, prostate, liver and cervix, are shown in Table 13. The specific cell lines employed are as follows:
T24=bladder cell carcinoma HCT116=colon cell carcinoma A549=lung cell carcinoma MDA-MB-231=breast cell adenocarcinoma […]=pancreatic cell carcinoma PC-3=prostrate cell adenocarcinoma HepG2=hepatocellular carcinoma HeLaS3=cells isolated from a carcinoma of the cervix T-47D=breast ductal carcinoma H596=lung adenosquamous carcinoma cells Colo320=colon cell adenocarcinoma

[2] = tested on: MDA PaCa-2 pancreatic cell carcinoma; assay: Relative colony forming efficiency (Example 17, Table 13); details: MIA PaCa-2 pancreatic cell carcinoma; averages of 2-8 determinations
Outline: (§1)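 Phosphorothioate antisense oligodeoxynucleotides, at 0.2 μM unless otherwise indicated, were applied with 2.5 μg DOTMA/DOPE (Lipofectin) for 4 h. Colonies stained with methylene blue and scored, with viability sometimes checked by trypan blue exclusion. Values given as % inhibition of colony formation relative to lipofectin-only controls.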

[3] = tested on: A549 lung cell carcinoma; assay: as above; details: averages of 2-8 determinations
Outline: as §1

[4] = tested on: PC-3 prostrate cell adenocarcinoma; assay: as above; details: averages of 2-8 determinations
Outline: as §1

[5] = tested on: HCT116 colon cell carcinoma; assay: as above; details: averages of 2-8 determinations
Outline: as §1

[6] = tested on: T24 bladder cell carcinoma; assay: as above; details: averages of 2-8 determinations
Outline: as §1

[7] = tested on: HepG2 hepatocellular carcinoma; assay: as above; details: averages of 2-8 determinations
Outline: as §1

[8] = tested on: MDA-MB-231 breast cell adenocarcinoma; assay: as above; details: averages of 2-8 determinations
Outline: as §1

| Substance | Reduced relative colony forming efficiency, Hela S3 (% inhibition of colony forming ability) [1] [%] | Reduced relative colony forming efficiency, MIA PaCa-2 (% inhibition of colony forming ability) [2] [%] | Reduced relative colony forming efficiency, A549 (% inhibition of colony forming ability) [3] [%] | Reduced relative colony forming efficiency, PC-3 (% inhibition of colony forming ability) [4] [%] | Reduced relative colony forming efficiency, HCT116 (% inhibition of colony forming ability) [5] [%] | Reduced relative colony forming efficiency, T24 (% inhibition of colony forming ability) [6] [%] | Reduced relative colony forming efficiency, HepG2 (% inhibition of colony forming ability) [7] [%] | Reduced relative colony forming efficiency, MDA-MB-231 (% inhibition of colony forming ability) [8] [%] |
| --- | --- | --- | --- | --- | --- | --- | --- | --- |
| ATAAAGTCAAATGGGTTCTC (antisense dA*dT*dA*dA*dA*dG*dT*dC*dA*dA*dA*dT*dG*dG*dG*dT*dT*dC*dT*dC) [AS-II-1224-20] | 14.8 | 17.22 | 55.06 | 80.66 | 41.78 | 38.31 | 76.05 | – |
| TTAGTCTTTCCTTCCAGTGA (antisense dT*dT*dA*dG*dT*dC*dT*dT*dT*dC*dC*dT*dT*dC*dC*dA*dG*dT*dG*dA) [AS-II-1254-20] | 7.64 | 3.32 | 36.74 | 73.31 | 28.54 | 41.53 | 83.28 | – |
| GGTTTTCTCTCAGCAGCGGC (antisense dG*dG*dT*dT*dT*dT*dC*dT*dC*dT*dC*dA*dG*dC*dA*dG*dC*dG*dG*dC) [AS-II-404-20] | 58.37 | 17.84 | 52.17 | 77.08 | – | 84.26 | 84.79 | 85.83 |
| AS-II-114420 (antisense dG*dT*dA*dT*dT*dG*dC*dT*dT*dC*dA*dT*dT*dA*dG*dA*dG*dT*dG*dC) | 50.57 | 46.39 | 61.81 | 30.21 | 54.25 | 62.9 | 92.17 | – |
| GAGAAATAAAATGAAACGGC (antisense dG*dA*dG*dA*dA*dA*dT*dA*dA*dA*dA*dT*dG*dA*dA*dA*dC*dG*dG*dC) [AS-II-2164-20] | – | 89.36 | 91.15 | 83.36 | 50.08 | 61.84 | 93.07 | 69.03 |
| TCGCTCCACCAAGTTTTCAT (antisense dT*dC*dG*dC*dT*dC*dC*dA*dC*dC*dA*dA*dG*dT*dT*dT*dT*dC*dA*dT) [AS-II-619-20] | 31.22 | 39.83 | 65.67 | 88.01 | – | 86.3 | 92.02 | 91.08 |
| TTAGAAGTCAGCATCCAAGG (antisense dT*dT*dA*dG*dA*dA*dG*dT*dC*dA*dG*dC*dA*dT*dC*dC*dA*dA*dG*dG) [AS-II-1345-20] | – | 77.39 | 73.1 | 89.58 | 65.7 | 51.26 | 75.42 | 94.11 |
| GGAAGATGACAAAGCGGCGG (antisense dG*dG*dA*dA*dG*dA*dT*dG*dA*dC*dA*dA*dA*dG*dC*dG*dG*dC*dG*dG) [AS-II-425-20] | 63.09 | 65.2 | 57.38 | 75.65 | – | 90.37 | 97.89 | 89.75 |
| AACTTCTTGGCTAAATCGCT (antisense dA*dA*dC*dT*dT*dC*dT*dT*dG*dG*dC*dT*dA*dA*dA*dT*dC*dG*dC*dT) [AS-II-634-20] | 48.94 | – | 57.76 | 77.86 | – | 83.52 | 95.78 | 92.44 |
| GGCATCAGTCCTCGTTTCTT (antisense dG*dG*dC*dA*dT*dC*dA*dG*dT*dC*dC*dT*dC*dG*dT*dT*dT*dC*dT*dT) [AS-II-933-20] | 26.86 | 35.68 | 53.52 | 36.91 | 67.24 | 64.84 | – | 64.39 |
| GAACATCAGGCAAGCAAAAT (antisense dG*dA*dA*dC*dA*dT*dC*dA*dG*dG*dC*dA*dA*dG*dC*dA*dA*dA*dA*dT) [AS-II-1006-20] | 41.79 | 47.93 | 61.62 | 92.58 | 45.56 | 61.49 | 89.31 | – |
